≈ marks a conversion by molar mass, not a printed value.
Assays:
Assay in all cases: Agar dilution MIC
[1] = system: Anaerobiospirillum succiniciproducens; format: cell-based; settings: 3 isolates
[2] = system: Prevotella buccae-oris group; format: cell-based; settings: 22 isolates
[3] = system: Peptostreptococcus magnus; format: cell-based; settings: Finegoldia magna, 13 isolates
Porphyromonas gingivalis = format: cell-based; settings: 13 isolates
[4] = system: Actinomyces odontolyticus; format: cell-based; settings: Schaalia odontolytica, 10 isolates
Fusobacterium varium = format: cell-based; settings: Fusobacterium varium, 17 isolates
[5] = system: Prevotella heparinolytica; format: cell-based; settings: 16 isolates
Porphyromonas canoris = format: cell-based; settings: 10 isolates
[6] = system: Porphyromonas asaccharolyticus; format: cell-based, Porphyromonas asaccharolytica; settings: Porphyromonas, 11 isolates
Prevotella intermedia = format: cell-based; settings: Prevotella intermedia, 11 isolates
Porphyromonas macaccae = format: cell-based; settings: 13 isolates
[7] = system: Fusobacterium spp group 1; format: cell-based; settings: Fusobacterium, 19 isolates
Clostridium dfficile = format: cell-based, Clostridium difficile; settings: Clostridium
Fusobacterium russii = format: cell-based; settings: Fusobacterium russii
[8] = system: Prevotella denticola/loeschii group; format: cell-based; settings: 6 isolates
[9] = system: Clostridium clostridioforme; format: cell-based; settings: Clostridium, 11 isolates
Clostridium inocuum = format: cell-based, Clostridium innocuum; settings: Clostridium, 11 isolates
Bacteroides ureolyticus = format: cell-based; settings: 17 isolates
[10] = system: Fusobacterium spp. group 2; format: cell-based, Fusobacterium mortiferum, necrogenes, ulcerans; settings: Fusobacterium, 12 isolates
[11] = system: Peptostreptococcus asaccharolyticus; format: cell-based; settings: Peptoniphilus asaccharolyticus, 11 isolates
Porphyromonas spp. = format: cell-based, Porphyromonas cangingivalis, cansulci, circumdentaria, levii; settings: 11 isolates
[12] = system: Peptostreptococcus prevotii; format: cell-based; settings: Anaerococcus prevotii, read-out: Minimal Inhibitory Concentration 50% (MIC50); 9 isolates
Actinomyces israelii = format: cell-based; settings: Actinomyces israelii, read-out: Minimal Inhibitory Concentration 50% (MIC50); 6 isolates
Bacteroides tectum = format: cell-based; settings: 22 isolates
Prevotella bivia = format: cell-based; settings: Prevotella bivia, 21 isolates
Bilophila wadsworthia = format: cell-based; settings: 16 isolates, agar supplemented with pyruvate
[13] = system: Prevotella melaninogenica; format: cell-based; settings: 12 isolates
[14] = system: Peptostreptococcus micros; format: cell-based; settings: 12 isolates
Bacteroides gracilis = format: cell-based, Bacteroides gracilis (Campylobacter gracilis); settings: 11 isolates
[15] = system: Anaerobiospirillum thomasii; format: cell-based; settings: 13 isolates
Clostridium ramosum = format: cell-based; settings: Thomasclavelia ramosa, 10 isolates
Veillonella spp. = format: cell-based; settings: Veillonella, 24 isolates
[16] = read-out: Minimal Inhibitory Concentration 50% (MIC50)
[17] = read-out: Minimal Inhibitory Concentration 90% (MIC90)
[18] = Porphyromonas, read-out: Minimal Inhibitory Concentration 50% (MIC50)
[19] = Porphyromonas, read-out: Minimal Inhibitory Concentration 90% (MIC90)

Compound: CC[C@H]1OC(=O)[C@H](C)[C@@H](O[C@H]2C[C@@](C)(OC)[C@@H](O)[C@H](C)O2)[C@H](C)[C@@H](O[C@@H]2O[C@H](C)C[C@H](N(C)C)[C@H]2O)[C@](C)(OC)C[C@@H](C)C(=O)[C@H](C)[C@@H](O)[C@]1(C)O [Clarithromycin]
- Minimal Inhibitory Concentration Range [1]: 8 to 32 µg/mL
- MIC50 ([1]; Anaerobiospirillum succiniciproducens, read-out: Minimal Inhibitory Concentration 50% (MIC50)): 32 mg/L (≈ 42.8 µM)
- Minimal Inhibitory Concentration Range [2]: 0.06 to 1 µg/mL
- MIC90 ([2]; Prevotella, read-out: Minimal Inhibitory Concentration 90% (MIC90)): 0.25 mg/L (≈ 0.334 µM)
- MIC50 ([2]; Prevotella, read-out: Minimal Inhibitory Concentration 50% (MIC50)): 0.125 mg/L (≈ 0.167 µM)
- MIC50 [3, 16]: 2 mg/L (≈ 2.67 µM)
- MIC90 [3, 17]: > 32 mg/L
- Minimal Inhibitory Concentration Range (Porphyromonas gingivalis): 0.06 to 0.125 µg/mL
- MIC50 (Porphyromonas gingivalis; Porphyromonas gingivalis, read-out: Minimal Inhibitory Concentration 50% (MIC50)): 0.06 mg/L (≈ 0.0802 µM)
- MIC90 (Porphyromonas gingivalis; Porphyromonas gingivalis, read-out: Minimal Inhibitory Concentration 90% (MIC90)): 0.125 mg/L (≈ 0.167 µM)
- MIC90 [4, 17]: ≤ 0.015 mg/L
- MIC50 [4, 16]: ≤ 0.015 mg/L
- MIC50 (Fusobacterium varium; [16]): > 32 mg/L
- MIC90 (Fusobacterium varium; [17]): > 32 mg/L
- Minimal Inhibitory Concentration Range [5]: 0.06 to 0.125 µg/mL
- MIC90 ([5]; Prevotella heparinolytica, read-out: Minimal Inhibitory Concentration 90% (MIC90)): 0.125 mg/L (≈ 0.167 µM)
- MIC50 ([5]; Prevotella heparinolytica, read-out: Minimal Inhibitory Concentration 50% (MIC50)): 0.125 mg/L (≈ 0.167 µM)
- Minimal Inhibitory Concentration Range (Porphyromonas canoris): 0.06 to 0.125 µg/mL
- MIC50 (Porphyromonas canoris; Porphyromonas canoris, read-out: Minimal Inhibitory Concentration 50% (MIC50)): 0.06 mg/L (≈ 0.0802 µM)
- MIC90 (Porphyromonas canoris; Porphyromonas canoris, read-out: Minimal Inhibitory Concentration 90% (MIC90)): 0.125 mg/L (≈ 0.167 µM)
- MIC50 [6, 16]: 0.06 mg/L (≈ 0.0802 µM)
- MIC90 [6, 17]: > 32 mg/L
- MIC90 (Prevotella intermedia; [17]): 0.125 mg/L (≈ 0.167 µM)
- MIC50 (Prevotella intermedia; [16]): ≤ 0.015 mg/L
- Minimal Inhibitory Concentration Range (Porphyromonas macaccae): 0.06 to 0.125 µg/mL
- MIC50 (Porphyromonas macaccae; [18]): 0.125 mg/L (≈ 0.167 µM)
- MIC90 (Porphyromonas macaccae; [19]): 0.125 mg/L (≈ 0.167 µM)
- MIC50 ([7]; GROUP1, read-out: Minimal Inhibitory Concentration 50% (MIC50)): 8 mg/L (≈ 10.7 µM)
- MIC90 ([7]; GROUP1, read-out: Minimal Inhibitory Concentration 90% (MIC90)): 32 mg/L (≈ 42.8 µM)
- MIC50 (Clostridium dfficile; [16]): 0.5 mg/L (≈ 0.668 µM)
- MIC90 (Clostridium dfficile; read-out: Minimal Inhibitory Concentration 90% (MIC90), 14 isolates): > 32 mg/L
- MIC50 (Fusobacterium russii; [16]): 4 mg/L (≈ 5.35 µM)
- MIC90 (Fusobacterium russii; [17]): > 32 mg/L
- Minimal Inhibitory Concentration Range [8]: 0.03 to 2 µg/mL
- MIC50 ([8]; Prevotella denticola, read-out: Minimal Inhibitory Concentration 50% (MIC50)): 0.06 mg/L (≈ 0.0802 µM)
- MIC90 [9, 17]: > 32 mg/L
- MIC50 [9, 16]: 4 mg/L (≈ 5.35 µM)
- MIC90 (Clostridium inocuum; [17]): > 32 mg/L
- MIC50 (Clostridium inocuum; [16]): > 32 mg/L
- Minimal Inhibitory Concentration Range (Bacteroides ureolyticus): 0.125 to 4 µg/mL
- MIC90 (Bacteroides ureolyticus; Campylobacter ureolyticus, read-out: Minimal Inhibitory Concentration 90% (MIC90)): 2 mg/L (≈ 2.67 µM)
- MIC50 (Bacteroides ureolyticus; Campylobacter ureolyticus, read-out: Minimal Inhibitory Concentration 50% (MIC50)): 0.5 mg/L (≈ 0.668 µM)
- MIC50 [10, 16]: > 32 mg/L
- MIC90 [10, 17]: > 32 mg/L
- MIC50 [11, 16]: 2 mg/L (≈ 2.67 µM)
- MIC90 [11, 17]: > 32 mg/L
- Minimal Inhibitory Concentration Range (Porphyromonas spp.): 0.06 to 0.125 µg/mL
- MIC50 (Porphyromonas spp.; [18]): 0.06 mg/L (≈ 0.0802 µM)
- MIC90 (Porphyromonas spp.; [19]): 0.125 mg/L (≈ 0.167 µM)
- MIC50 [12]: > 32 mg/L
- MIC50 (Actinomyces israelii): ≤ 0.015 mg/L
- Minimal Inhibitory Concentration Range (Bacteroides tectum): 0.125 µg/mL
- MIC90 (Bacteroides tectum; Bacteroides pyogenes, read-out: Minimal Inhibitory Concentration 90% (MIC90)): 0.125 mg/L (≈ 0.167 µM)
- MIC50 (Bacteroides tectum; Bacteroides pyogenes, read-out: Minimal Inhibitory Concentration 50% (MIC50)): 0.125 mg/L (≈ 0.167 µM)
- MIC90 (Prevotella bivia; [17]): 0.25 mg/L (≈ 0.334 µM)
- MIC50 (Prevotella bivia; [16]): 0.125 mg/L (≈ 0.167 µM)
- Minimal Inhibitory Concentration Range (Bilophila wadsworthia): 4 to 32 µg/mL
- MIC90 (Bilophila wadsworthia; Bilophila wadsworthia, read-out: Minimal Inhibitory Concentration 90% (MIC90)): 32 mg/L (≈ 42.8 µM)
- MIC50 (Bilophila wadsworthia; Bilophila wadsworthia, read-out: Minimal Inhibitory Concentration 50% (MIC50)): 16 mg/L (≈ 21.4 µM)
- Minimal Inhibitory Concentration Range [13]: 0.06 to 4 µg/mL
- MIC90 ([13]; Prevotella melaninogenica, read-out: Minimal Inhibitory Concentration 90% (MIC90)): 1 mg/L (≈ 1.34 µM)
- MIC50 ([13]; Prevotella melaninogenica, read-out: Minimal Inhibitory Concentration 50% (MIC50)): 0.125 mg/L (≈ 0.167 µM)
- Minimal Inhibitory Concentration Range [14]: 0.6 µg/mL
- MIC50 ([14]; Parvimonas micra, read-out: Minimal Inhibitory Concentration 50% (MIC50)): 0.5 mg/L (≈ 0.668 µM)
- MIC90 ([14]; Parvimonas micra, read-out: Minimal Inhibitory Concentration 90% (MIC90)): 0.5 mg/L (≈ 0.668 µM)
- Minimal Inhibitory Concentration Range (Bacteroides gracilis): 0.25 to 2 µg/mL
- MIC90 (Bacteroides gracilis; Campylobacter gracilis, read-out: Minimal Inhibitory Concentration 90% (MIC90)): 1 mg/L (≈ 1.34 µM)
- MIC50 (Bacteroides gracilis; Campylobacter gracilis, read-out: Minimal Inhibitory Concentration 50% (MIC50)): 1 mg/L (≈ 1.34 µM)
- Minimal Inhibitory Concentration Range [15]: 2 to 32 µg/mL
- MIC50 ([15]; Anaerobiospirillum thomasii, read-out: Minimal Inhibitory Concentration 50% (MIC50)): 4 mg/L (≈ 5.35 µM)
- MIC90 ([15]; Anaerobiospirillum thomasii, read-out: Minimal Inhibitory Concentration 90% (MIC90)): 16 mg/L (≈ 21.4 µM)
- MIC50 (Clostridium ramosum; [16]): 0.5 mg/L (≈ 0.668 µM)
- MIC90 (Clostridium ramosum; [17]): > 32 mg/L
- MIC90 (Veillonella spp.; [17]): > 32 mg/L
- MIC50 (Veillonella spp.; [16]): 16 mg/L (≈ 21.4 µM)
